Experimental data reported in patent US20250082656A1, “DOSAGE REGIMENS FOR TREATMENT OF DENGUE INFECTION” (Atea Pharmaceuticals, Inc., priority 2022, published 2025).

Columns and labels:
DENV2 NS5 = DENV2 NS5 (Dengue virus type 2, UniProt P14340); test: Nucleotide analogue incorporation / discrimination assay, DENV2 NS5; type: biochemical
Procedure: The chain-terminating efficiency of Compound 5 was measured in competitive nucleotide incorporation assays using all four DENV serotypes. […] In comparison, sofosbuvir triphosphate is incorporated into the RNA less than 1 time for every 100 UTP (native uridine triphosphate) incorporations.
The experimental procedure is provided in Example 10.
Measurements and quantitations were as in FIG. 19B.
DENV NS5 was preincubated with the annealed P10/T20 RNA in an assembly buffer containing 20 mM HEPES pH 7.5, 10% glycerol, 5 mM MgCl2 and 5 mM DTT for 10 min at 30° C. to create an active RNA elongation complex. Reactions were started by adding AT-9010 with either all four NTPs, or UTP, ATP and CTP only. […] Reactions were quenched at indicated timepoints in 2× volume FBD stop solution (formamide, 10 mM EDTA) and analysed on 20% acrylamide:bisacrylamide (19:1), […] sequencing gels. RNA products were visualized using a Typhoon FluorImager and analyzed using ImageQuant software.
DENV NS5 was pre-incubated with the annealed P10/T20 RNA in an assembly buffer containing 20 mM HEPES pH 7.5, 10% glycerol, 5 mM MgCl2, and 5 mM DTT for 10 min at 30° C. to create an active RNA elongation complex.
Reactions were started by adding AT-9010 with either all four NTPs or UTP, ATP, and CTP only.
Single nucleotide incorporation was tested as follows. Reactions were started by adding the corresponding NTP or analogue. Final concentrations were 1 μM NS5, 0.25 μM P10/T20, 100 μM NTP or analogue in a final buffer containing 20 mM HEPES pH 7.5, 15% glycerol, 5 mM MgCl2, and 5 mM DTT.
Reactions were quenched at the designated time points in 3× volume FBD stop solution (formamide, 10 mM EDTA) and analyzed on 20% acrylamide-bisacrylamide (19:1) […] sequencing gels. RNA products were visualized using a Typhoon FluorImager then analyzed and quantified using ImageQuant software.

DENV4 RdRp domain = test: Thermal shift assay, DENV4 RdRp domain; conditions: RdRp domain DENV4, 100 μM compound
[1] = In vivo formation of AT-9010 in PBMCs, rats; parameters: species or system SD rats; conditions: single oral dose 300 mg/kg, 24 h
Procedure: Monkeys were given an oral dose of Compound 2 (AT-752) equivalent to Compound 1 (AT-281) at 55 mg/kg and blood collected at 12, 24 and 48 h. […] Mouse PBMCs were pooled from 3 animals per time point; Rat and monkey data expressed as mean+/−SD (n=2-3 per time point). […] The experimental procedure is provided in Example 15.
Male naïve SD rats (Beijing Vital River Laboratory Animals Co. Ltd., China) were administered a dose of AT-752 at 300 mg/kg in 40% PEG400, 10% solutol HS15, 50% 100 mM citrate buffer, pH 4.5 (v/v) by oral gavage. Blood samples (n=4) were collected at 1, 2, 4, 8, 12 and 24 h post-dose, plasma separated and stored at −70° C. […] For PBMCs, nine male naïve SD rats were administered a dose of Compound 2 (AT-752) (at a Compound 1 (AT-281) equivalent dose of 300 mg/kg) by oral gavage.
Pharmacokinetic measurements for FIGS. 11, 12, 13, 14, and 15 were analyzed using LC-MS/MS according to the protocol described herein. Plasma samples were prepared for MS analysis by adding internal standards and extracting with 20 volumes chilled ACN. After vortex (800 rpm for 10 min) and centrifugation (4,000 rpm, 15 min, 4° C.), the supernatants (25 μL) were diluted with an equal volume of H2O, mixed and spun again. […]

clinical = conditions: both, human, in vivo, steady-state, human plasma, mean±SD; for AUC: AUCtau
HIV-1 = test: Antiviral specificity panel, HIV-1; type: cell-based; conditions: Human immunodeficiency virus 1; RNA virus, CEM-SS
DENV-3 = test: Antiviral assay with FC read-out, DENV-3; type: cell-based; conditions: Dengue virus, DENV3; DENV-3 CH4348, Huh-7, FC read-out
DENV-4 = test: Antiviral assay with FC read-out, DENV-4; type: cell-based; conditions: Dengue virus, DENV4; DENV-4 TVP-360, Huh-7, FC read-out
Dengue-2 (DENV-2) = test: Neutral red assay of virus-induced CPE, DENV-2; type: cell-based; conditions: DENV2, DENV-2 New Guinea C (NGC), Huh-7, neutral red (NR) assay
West Nile (WNV) = test: microbe, parasite or virus in culture; type: cell-based; conditions: Kern 515, WNo2, Huh-7, VYR assay
Herpes simplex-1 = test: Antiviral specificity panel, Herpes simplex-1; type: cell-based; conditions: DNA virus, Vero

SMILES	Preference (discrimination) native nucleotide > analogue (DENV2 NS5; DENV2, GTP for AT-9010 and AT-9002, UTP for SOF-TP)	discrimination factor (preference for GTP>Compound 5) (DENV2 NS5; DENV-2 NS5, all four NTPs, band product intensities)	effect on RNA synthesis after incorporation (DENV2 NS5; absence of GTP, next correct nucleotide (UTP) present)	ΔTM (DENV4 RdRp domain) [°C]	concentration of AT-9010 in PBMCs [1] [pmol/10^6 cells]	AUC (clinical; 750 mg, Compound 2 750 mg BID) [µg·h/mL]	AUC (clinical; 750 mg, Compound 2 750 mg TID) [µg·h/mL]	Cmax (clinical; 750 mg, Compound 2 750 mg BID) [µg/mL]	Cmax (clinical; 750 mg, Compound 2 750 mg TID) [µg/mL]	AUC (clinical; 1000 mg, Compound 2 1000 mg QD) [µg·h/mL]	Cmax (clinical; 1000 mg, Compound 2 1000 mg QD) [µg/mL]	EC50 (HIV-1) [µM]	EC50 (DENV-3) [µM]	EC50 (DENV-4) [µM]	EC50 (Dengue-2 (DENV-2)) [µM]	EC90 (West Nile (WNV)) [µM]	EC50 (Herpes simplex-1) [µM]
C[C@@]1(F)[C@H](O)[C@@H](COP(=O)(O)OP(=O)(O)OP(=O)(O)O)O[C@H]1n1cnc2c(=O)[nH]c(N)nc21 [Compound 5]	9.3 ± 0.1	12.6±4.3	immediate chain-termination of RNA synthesis	4.1 ± 0.1	0.439±0.218	–	–	–	–	–	–	–	–	–	–	–	–
CNc1nc(N)nc2c1ncn2[C@@H]1O[C@H](CO[P@](=O)(N[C@@H](C)C(=O)OC(C)C)Oc2ccccc2)[C@@H](O)[C@@]1(C)F [Compound 1, isopropyl ((R)-(((2R,3R,4R,5R)-5-(2-amino-6-(methylamino)-9H-purin-9-yl)-4-fluoro-3-hydroxy-4-methyltetrahydrofuran-2-yl)methoxy)(phenoxy)phosphoryl)-L-alaninate]	–	–	–	–	–	2.61 ± 0.64	2.54 ± 0.572	3.49 ± 1.28	3.01 ± 0.754	3.09 ± 1.53	3.81 ± 1.67	> 100	1.33	1.19	0.48	0.43	> 100
